Assay results taken from ChEMBL document CHEMBL3286240, “Inhibition of Enterococcus faecalis biofilm formation by highly active lactones and lactams analogues of rubrolides” (Eur J Med Chem, 2014).
In brackets after ≈: the same amount, converted by molar mass.

System: Enterococcus faecalis
Assay: Antimicrobial activity against Enterococcus faecalis assessed as bacterial growth at 87.5 ug/ml after 20 hrs by microtiter plate assay
Type: functional

Compound	Activity [%]
COc1ccccc1C1=C(Br)C(=O)O/C1=C\c1ccc(C(F)(F)F)cc1	66.5
COc1ccc(Br)cc1C1=C(Br)C(=O)O/C1=C\c1cccc(Cl)c1	72.1
COc1ccc(Br)cc1C1=C(Br)C(=O)O/C1=C\c1ccc(Br)cc1	35.9
COc1ccc(C)cc1C1=C(Br)C(=O)O/C1=C\c1cccc(Cl)c1	55.8
COc1ccc(C)cc1C1=C(Br)C(=O)O/C1=C\c1ccccc1Cl	63.8
COc1ccc(Cl)cc1C1=C(Br)C(=O)O/C1=C\c1ccccc1Br	68.7
COc1cccc(/C=C2\OC(=O)C(Br)=C2c2cc(Cl)ccc2OC)c1	40.5
COc1ccccc1C1=C(Br)C(=O)N(CC(C)C)C1(O)Cc1ccc(C(F)(F)F)cc1 (stereo not drawn)	-24.6
COc1ccc(Br)cc1C1=C(Br)C(=O)N(CC(C)C)C1(O)Cc1cccc(Cl)c1 (stereo not drawn)	48.7
COc1ccc(Br)cc1C1=C(Br)C(=O)N(CC(C)C)C1(O)Cc1ccc(Br)cc1 (stereo not drawn)	42.4
COc1ccc(C)cc1C1=C(Br)C(=O)N(CC(C)C)C1(O)Cc1cccc(Cl)c1 (stereo not drawn)	53.1

System: Enterococcus faecalis
Assay: Antimicrobial activity against Enterococcus faecalis assessed as bacterial growth at 43.8 ug/ml after 20 hrs by microtiter plate assay
Type: functional

Compound	Activity [%]
COc1ccccc1C1=C(Br)C(=O)O/C1=C\c1ccc(C(F)(F)F)cc1	46.3
COc1ccc(Br)cc1C1=C(Br)C(=O)O/C1=C\c1cccc(Cl)c1	38.8
COc1ccc(Br)cc1C1=C(Br)C(=O)O/C1=C\c1ccc(Br)cc1	22.3
COc1ccc(C)cc1C1=C(Br)C(=O)O/C1=C\c1cccc(Cl)c1	39.6
COc1ccc(C)cc1C1=C(Br)C(=O)O/C1=C\c1ccccc1Cl	28.8
COc1ccc(Cl)cc1C1=C(Br)C(=O)O/C1=C\c1ccccc1Br	47
COc1cccc(/C=C2\OC(=O)C(Br)=C2c2cc(Cl)ccc2OC)c1	24.1
COc1ccccc1C1=C(Br)C(=O)N(CC(C)C)C1(O)Cc1ccc(C(F)(F)F)cc1 (stereo not drawn)	-1.2
COc1ccc(Br)cc1C1=C(Br)C(=O)N(CC(C)C)C1(O)Cc1cccc(Cl)c1 (stereo not drawn)	30.3
COc1ccc(Br)cc1C1=C(Br)C(=O)N(CC(C)C)C1(O)Cc1ccc(Br)cc1 (stereo not drawn)	28.1
COc1ccc(C)cc1C1=C(Br)C(=O)N(CC(C)C)C1(O)Cc1cccc(Cl)c1 (stereo not drawn)	36.8

System: Enterococcus faecalis
Assay: Antimicrobial activity against Enterococcus faecalis assessed as bacterial growth at 21.9 ug/ml after 20 hrs by microtiter plate assay
Type: functional

Compound	Activity [%]
COc1ccccc1C1=C(Br)C(=O)O/C1=C\c1ccc(C(F)(F)F)cc1	26
COc1ccc(Br)cc1C1=C(Br)C(=O)O/C1=C\c1cccc(Cl)c1	34.8
COc1ccc(Br)cc1C1=C(Br)C(=O)O/C1=C\c1ccc(Br)cc1	9.6
COc1ccc(C)cc1C1=C(Br)C(=O)O/C1=C\c1cccc(Cl)c1	19.4
COc1ccc(C)cc1C1=C(Br)C(=O)O/C1=C\c1ccccc1Cl	18.2
COc1ccc(Cl)cc1C1=C(Br)C(=O)O/C1=C\c1ccccc1Br	47.5
COc1cccc(/C=C2\OC(=O)C(Br)=C2c2cc(Cl)ccc2OC)c1	19.7
COc1ccccc1C1=C(Br)C(=O)N(CC(C)C)C1(O)Cc1ccc(C(F)(F)F)cc1 (stereo not drawn)	-7
COc1ccc(Br)cc1C1=C(Br)C(=O)N(CC(C)C)C1(O)Cc1cccc(Cl)c1 (stereo not drawn)	9.3
COc1ccc(Br)cc1C1=C(Br)C(=O)N(CC(C)C)C1(O)Cc1ccc(Br)cc1 (stereo not drawn)	15.8
COc1ccc(C)cc1C1=C(Br)C(=O)N(CC(C)C)C1(O)Cc1cccc(Cl)c1 (stereo not drawn)	24.9

System: Enterococcus faecalis
Assay: Antimicrobial activity against Enterococcus faecalis assessed as bacterial growth at 10.9 ug/ml after 20 hrs by microtiter plate assay
Type: functional

Compound	Activity [%]
COc1ccccc1C1=C(Br)C(=O)O/C1=C\c1ccc(C(F)(F)F)cc1	15.2
COc1ccc(Br)cc1C1=C(Br)C(=O)O/C1=C\c1cccc(Cl)c1	18.4
COc1ccc(Br)cc1C1=C(Br)C(=O)O/C1=C\c1ccc(Br)cc1	19.9
COc1ccc(C)cc1C1=C(Br)C(=O)O/C1=C\c1cccc(Cl)c1	17.7
COc1ccc(C)cc1C1=C(Br)C(=O)O/C1=C\c1ccccc1Cl	5.1
COc1ccc(Cl)cc1C1=C(Br)C(=O)O/C1=C\c1ccccc1Br	33.2
COc1cccc(/C=C2\OC(=O)C(Br)=C2c2cc(Cl)ccc2OC)c1	9.2
COc1ccccc1C1=C(Br)C(=O)N(CC(C)C)C1(O)Cc1ccc(C(F)(F)F)cc1 (stereo not drawn)	22.7
COc1ccc(Br)cc1C1=C(Br)C(=O)N(CC(C)C)C1(O)Cc1cccc(Cl)c1 (stereo not drawn)	6.5
COc1ccc(Br)cc1C1=C(Br)C(=O)N(CC(C)C)C1(O)Cc1ccc(Br)cc1 (stereo not drawn)	10.4
COc1ccc(C)cc1C1=C(Br)C(=O)N(CC(C)C)C1(O)Cc1cccc(Cl)c1 (stereo not drawn)	5.8

System: Enterococcus faecalis
Assay: Antimicrobial activity against Enterococcus faecalis assessed as bacterial growth at 5.5 ug/ml after 20 hrs by microtiter plate assay
Type: functional

Compound	Activity [%]
COc1ccccc1C1=C(Br)C(=O)O/C1=C\c1ccc(C(F)(F)F)cc1	7.1
COc1ccc(Br)cc1C1=C(Br)C(=O)O/C1=C\c1cccc(Cl)c1	14.9
COc1ccc(Br)cc1C1=C(Br)C(=O)O/C1=C\c1ccc(Br)cc1	9.6
COc1ccc(C)cc1C1=C(Br)C(=O)O/C1=C\c1cccc(Cl)c1	17.4
COc1ccc(C)cc1C1=C(Br)C(=O)O/C1=C\c1ccccc1Cl	19.1
COc1ccc(Cl)cc1C1=C(Br)C(=O)O/C1=C\c1ccccc1Br	36.3
COc1cccc(/C=C2\OC(=O)C(Br)=C2c2cc(Cl)ccc2OC)c1	9.7
COc1ccccc1C1=C(Br)C(=O)N(CC(C)C)C1(O)Cc1ccc(C(F)(F)F)cc1 (stereo not drawn)	18.1
COc1ccc(Br)cc1C1=C(Br)C(=O)N(CC(C)C)C1(O)Cc1cccc(Cl)c1 (stereo not drawn)	-2.1
COc1ccc(Br)cc1C1=C(Br)C(=O)N(CC(C)C)C1(O)Cc1ccc(Br)cc1 (stereo not drawn)	8.4
COc1ccc(C)cc1C1=C(Br)C(=O)N(CC(C)C)C1(O)Cc1cccc(Cl)c1 (stereo not drawn)	4.2

System: Enterococcus faecalis
Assay: Antimicrobial activity against Enterococcus faecalis assessed as bacterial growth at 2.73 ug/ml after 20 hrs by microtiter plate assay
Type: functional

Compound	Activity [%]
COc1ccccc1C1=C(Br)C(=O)O/C1=C\c1ccc(C(F)(F)F)cc1	-4.8
COc1ccc(Br)cc1C1=C(Br)C(=O)O/C1=C\c1cccc(Cl)c1	16
COc1ccc(Br)cc1C1=C(Br)C(=O)O/C1=C\c1ccc(Br)cc1	1.1
COc1ccc(C)cc1C1=C(Br)C(=O)O/C1=C\c1cccc(Cl)c1	9.8
COc1ccc(C)cc1C1=C(Br)C(=O)O/C1=C\c1ccccc1Cl	19.9
COc1ccc(Cl)cc1C1=C(Br)C(=O)O/C1=C\c1ccccc1Br	23.8
COc1cccc(/C=C2\OC(=O)C(Br)=C2c2cc(Cl)ccc2OC)c1	11.8
COc1ccccc1C1=C(Br)C(=O)N(CC(C)C)C1(O)Cc1ccc(C(F)(F)F)cc1 (stereo not drawn)	8.4
COc1ccc(Br)cc1C1=C(Br)C(=O)N(CC(C)C)C1(O)Cc1cccc(Cl)c1 (stereo not drawn)	-4.4
COc1ccc(Br)cc1C1=C(Br)C(=O)N(CC(C)C)C1(O)Cc1ccc(Br)cc1 (stereo not drawn)	8.9
COc1ccc(C)cc1C1=C(Br)C(=O)N(CC(C)C)C1(O)Cc1cccc(Cl)c1 (stereo not drawn)	4.8

System: Enterococcus faecalis
Assay: Antimicrobial activity against Enterococcus faecalis assessed as bacterial growth at 1.37 ug/ml after 20 hrs by microtiter plate assay
Type: functional

Compound	Activity [%]
COc1ccccc1C1=C(Br)C(=O)O/C1=C\c1ccc(C(F)(F)F)cc1	-7.6
COc1ccc(Br)cc1C1=C(Br)C(=O)O/C1=C\c1cccc(Cl)c1	14.4
COc1ccc(Br)cc1C1=C(Br)C(=O)O/C1=C\c1ccc(Br)cc1	8.8
COc1ccc(C)cc1C1=C(Br)C(=O)O/C1=C\c1cccc(Cl)c1	9.1
COc1ccc(C)cc1C1=C(Br)C(=O)O/C1=C\c1ccccc1Cl	27.1
COc1ccc(Cl)cc1C1=C(Br)C(=O)O/C1=C\c1ccccc1Br	-0.8
COc1cccc(/C=C2\OC(=O)C(Br)=C2c2cc(Cl)ccc2OC)c1	0.3
COc1ccccc1C1=C(Br)C(=O)N(CC(C)C)C1(O)Cc1ccc(C(F)(F)F)cc1 (stereo not drawn)	3.4
COc1ccc(Br)cc1C1=C(Br)C(=O)N(CC(C)C)C1(O)Cc1cccc(Cl)c1 (stereo not drawn)	1.3
COc1ccc(Br)cc1C1=C(Br)C(=O)N(CC(C)C)C1(O)Cc1ccc(Br)cc1 (stereo not drawn)	3.2
COc1ccc(C)cc1C1=C(Br)C(=O)N(CC(C)C)C1(O)Cc1cccc(Cl)c1 (stereo not drawn)	2.1

System: Enterococcus faecalis
Assay: Antimicrobial activity against Enterococcus faecalis assessed as bacterial growth at 0.68 ug/ml after 20 hrs by microtiter plate assay
Type: functional

Compound	Activity [%]
COc1ccccc1C1=C(Br)C(=O)O/C1=C\c1ccc(C(F)(F)F)cc1	-9.1
COc1ccc(Br)cc1C1=C(Br)C(=O)O/C1=C\c1cccc(Cl)c1	4.8
COc1ccc(Br)cc1C1=C(Br)C(=O)O/C1=C\c1ccc(Br)cc1	10.4
COc1ccc(C)cc1C1=C(Br)C(=O)O/C1=C\c1cccc(Cl)c1	-4.7
COc1ccc(C)cc1C1=C(Br)C(=O)O/C1=C\c1ccccc1Cl	33.9
COc1ccc(Cl)cc1C1=C(Br)C(=O)O/C1=C\c1ccccc1Br	-3.4
COc1cccc(/C=C2\OC(=O)C(Br)=C2c2cc(Cl)ccc2OC)c1	-5.6
COc1ccccc1C1=C(Br)C(=O)N(CC(C)C)C1(O)Cc1ccc(C(F)(F)F)cc1 (stereo not drawn)	11.3
COc1ccc(Br)cc1C1=C(Br)C(=O)N(CC(C)C)C1(O)Cc1cccc(Cl)c1 (stereo not drawn)	-0.8
COc1ccc(Br)cc1C1=C(Br)C(=O)N(CC(C)C)C1(O)Cc1ccc(Br)cc1 (stereo not drawn)	6.3
COc1ccc(C)cc1C1=C(Br)C(=O)N(CC(C)C)C1(O)Cc1cccc(Cl)c1 (stereo not drawn)	3.3

System: Enterococcus faecalis
Assay: Antimicrobial activity against Enterococcus faecalis assessed as bacterial growth at 0.34 ug/ml after 20 hrs by microtiter plate assay
Type: functional

Compound	Activity [%]
COc1ccccc1C1=C(Br)C(=O)O/C1=C\c1ccc(C(F)(F)F)cc1	-6.7
COc1ccc(Br)cc1C1=C(Br)C(=O)O/C1=C\c1cccc(Cl)c1	0.8
COc1ccc(Br)cc1C1=C(Br)C(=O)O/C1=C\c1ccc(Br)cc1	-0.3
COc1ccc(C)cc1C1=C(Br)C(=O)O/C1=C\c1cccc(Cl)c1	-7.9
COc1ccc(C)cc1C1=C(Br)C(=O)O/C1=C\c1ccccc1Cl	29.9
COc1ccc(Cl)cc1C1=C(Br)C(=O)O/C1=C\c1ccccc1Br	-4.7
COc1cccc(/C=C2\OC(=O)C(Br)=C2c2cc(Cl)ccc2OC)c1	-4.1
COc1ccccc1C1=C(Br)C(=O)N(CC(C)C)C1(O)Cc1ccc(C(F)(F)F)cc1 (stereo not drawn)	1.7
COc1ccc(Br)cc1C1=C(Br)C(=O)N(CC(C)C)C1(O)Cc1cccc(Cl)c1 (stereo not drawn)	-4.7
COc1ccc(Br)cc1C1=C(Br)C(=O)N(CC(C)C)C1(O)Cc1ccc(Br)cc1 (stereo not drawn)	10
COc1ccc(C)cc1C1=C(Br)C(=O)N(CC(C)C)C1(O)Cc1cccc(Cl)c1 (stereo not drawn)	0.7

System: Enterococcus faecalis
Assay: Antimicrobial activity against Enterococcus faecalis assessed as bacterial growth at 0.17 ug/ml after 20 hrs by microtiter plate assay
Type: functional

Compound	Activity [%]
COc1ccccc1C1=C(Br)C(=O)O/C1=C\c1ccc(C(F)(F)F)cc1	-4.5
COc1ccc(Br)cc1C1=C(Br)C(=O)O/C1=C\c1cccc(Cl)c1	7.2
COc1ccc(Br)cc1C1=C(Br)C(=O)O/C1=C\c1ccc(Br)cc1	0.8
COc1ccc(C)cc1C1=C(Br)C(=O)O/C1=C\c1cccc(Cl)c1	-6.4
COc1ccc(C)cc1C1=C(Br)C(=O)O/C1=C\c1ccccc1Cl	21
COc1ccc(Cl)cc1C1=C(Br)C(=O)O/C1=C\c1ccccc1Br	0.8
COc1cccc(/C=C2\OC(=O)C(Br)=C2c2cc(Cl)ccc2OC)c1	-1.5
COc1ccccc1C1=C(Br)C(=O)N(CC(C)C)C1(O)Cc1ccc(C(F)(F)F)cc1 (stereo not drawn)	1.9
COc1ccc(Br)cc1C1=C(Br)C(=O)N(CC(C)C)C1(O)Cc1cccc(Cl)c1 (stereo not drawn)	1.3
COc1ccc(Br)cc1C1=C(Br)C(=O)N(CC(C)C)C1(O)Cc1ccc(Br)cc1 (stereo not drawn)	-8
COc1ccc(C)cc1C1=C(Br)C(=O)N(CC(C)C)C1(O)Cc1cccc(Cl)c1 (stereo not drawn)	-2.5

System: Enterococcus faecalis
Assay: Antimicrobial activity against Enterococcus faecalis assessed as inhibition of biofilm formation after 20 hrs by crystal violet staining analysis
Type: functional, organism-based

Compound	IC50 [µg/mL]
COc1ccc(Br)cc1C1=C(Br)C(=O)O/C1=C\c1ccc(Br)cc1	18.7 (≈ 36.3 µM)
COc1ccc(C)cc1C1=C(Br)C(=O)N(CC(C)C)C1(O)Cc1cccc(Cl)c1 (stereo not drawn)	> 87.5

More lines, now with the values ahead:

IC50 [µg/mL]	Compound
6.91 (≈ 14.7 µM)	COc1ccc(Br)cc1C1=C(Br)C(=O)O/C1=C\c1cccc(Cl)c1
1.51 (≈ 3.72 µM)	COc1ccc(C)cc1C1=C(Br)C(=O)O/C1=C\c1cccc(Cl)c1
> 87.5	COc1ccc(Cl)cc1C1=C(Br)C(=O)O/C1=C\c1ccccc1Br
53.1 (≈ 126 µM)	COc1cccc(/C=C2\OC(=O)C(Br)=C2c2cc(Cl)ccc2OC)c1
> 87.5	COc1ccc(Br)cc1C1=C(Br)C(=O)N(CC(C)C)C1(O)Cc1cccc(Cl)c1 (stereo not drawn)
33.4 (≈ 56.8 µM)	COc1ccc(Br)cc1C1=C(Br)C(=O)N(CC(C)C)C1(O)Cc1ccc(Br)cc1 (stereo not drawn)
